According to patent US20100249145A1, “Inhibitors of VEGF Receptor and HGF Receptor Signaling” (Methylgene, Inc., priority 2005, published 2010):

Legend:
A549 = test: In vivo solid tumor disease model, A549 xenograft; design: species or system female athymic CD 1 mice
MKN74 = test: In vivo solid tumor disease model, MKN74 xenograft; design: species or system female athymic CD 1 mice; conditions: vehicle DMSO, 10 days
SKLMS cells = test: In vivo solid tumor disease model, SKLMS xenograft; design: species or system female athymic CD 1 mice; conditions: SKLMS40, 30 mg/kg once daily IP, vehicle DMSO
Source text: (§1) In Vivo Solid Tumor Disease Model
(§2) This test measures the capacity of compounds to inhibit solid tumor growth.
(§3) Tumor xenografts were established in the flank of female athymic CD 1 mice (Charles River Inc.), by subcutaneous injection of 1×10^6U87, A431 or SKLMS cells/mouse. Once established, tumors were then serially passaged s.c. in nude mice hosts. Tumor fragments from these host animals were used in subsequent compound evaluation experiments. For compound evaluation experiments female nude mice weighing approximately 20 g were implanted s.c. by surgical implantation with tumor fragments of ˜30 mg from donor tumors. When the tumors were approximately 100 mm^3 in size (˜7-10 days following implantation), the animals were randomized a separated into treatment and control groups. Each group contained 6-8 tumor-bearing mice, each of which was ear-tagged and followed individually throughout the experiment
(§4) Mice were weighed and tumor measurements are taken by calipers three times weekly, starting on Day 1. These tumor measurements were converted to tumor volume by the well-known formula (L+W/4)^34/3π. The experiment was terminated when the control tumors reached a size of approximately 1500 mm^3. In this model, the change in mean tumor volume for a compound treated group/the change in mean tumor volume of the control group (non-treated or vehicle treated)×100 (ΔT/ΔC) was subtracted from 100 to give the percent tumor growth inhibition (% TGI) for each test compound. In addition to tumor volumes, body weight of animals were monitored twice weekly for up to 3 weeks.
(§5) Regiment of administration was once daily.

HCT116 = test: In vivo solid tumor disease model, HCT116 xenograft; design: species or system female athymic CD 1 mice; conditions: HCT116, vehicle DMSO
U87 cells = test: In vivo solid tumor disease model, U87 xenograft; design: species or system female athymic CD 1 mice; conditions: U87MG
Source text: as §1, §2, §3, §4, §5

VEGF receptor KDR = target: T1, VEGF receptor KDR (Homo sapiens, UniProt P35968); test: In vitro receptor tyrosine kinase assay (DELFIA), VEGF receptor KDR; type: biochemical; conditions: Table 30; ATP 0.6 uM, enzyme 5 nM; read-out: VEGF(enz.) (IC50)
T1 construct: made in house; host or cells: Sf9 cells (Spodoptera frugiperda), recombinant baculovirus

SW48 = test: In vivo solid tumor disease model, SW48 xenograft; design: species or system female athymic CD 1 mice; conditions: 30 mg/kg once daily IP, vehicle DMSO, 14 days
TPR-MET fusion protein = TPR-MET fusion protein (Homo sapiens, UniProt P08581); test: C-Met phosphorylation cell-based assay (MNNGHOS cells, immunoblot); conditions: Table 30, 3 hours treatment, read-out: C-Met cell-based Y1230-34-35 tpr-met inhibition (IC50)
Source text: C-Met Phosphorylation Cell-Based Assay

[1] = target: T2, recombinant human c-Met/HGF receptor (Homo sapiens, UniProt P08581); test: In vitro receptor tyrosine kinase assay (DELFIA), c-Met/HGF receptor; type: biochemical; conditions: Table 30; ATP 10 uM, enzyme 25 nM; read-out: C-Met (enz.) (IC50)
T2 construct: His tag (histidine tag from pBlueBacHis2A); made in house; host or cells: Hi-5 cells (Trichoplusia ni), recombinant baculovirus

A431 cells = test: In vivo solid tumor disease model, A431 xenograft; design: species or system female athymic CD 1 mice; conditions: 30 mg/kg once daily IP, vehicle DMSO
Source text: as §1, §2, §3, §4, §5

DU145 = test: In vivo solid tumor disease model, DU145 xenograft; design: species or system female athymic CD 1 mice; conditions: vehicle DMSO, 10 days
MDA-MB-231 = test: In vivo solid tumor disease model, MDA-MB-231 xenograft; design: species or system female athymic CD 1 mice; conditions: 75 mg/kg once daily PO, vehicle 0.5% CMC in acetate buffer (pH 4.0), 14 days
MNNG-HOS = test: In vivo solid tumor disease model, MNNG-HOS xenograft; design: species or system female athymic CD 1 mice; conditions: 14 days
MV4-11 = test: In vivo solid tumor disease model, MV4-11 xenograft; design: species or system female athymic CD 1 mice; conditions: 20 mg/kg once daily p.o., 14 days
[2] = 30 mg/kg once daily IP, vehicle DMSO, 14 days
[3] = 30 mg/kg once daily IP, 14 days
[4] = 15 mg/kg once daily IP, vehicle DMSO, 10 days
[5] = 100 mg/kg once daily PO, vehicle 5% DMSO - 1% Tween-80 in water, 14 days

T1 sequence (P35968 806-1356): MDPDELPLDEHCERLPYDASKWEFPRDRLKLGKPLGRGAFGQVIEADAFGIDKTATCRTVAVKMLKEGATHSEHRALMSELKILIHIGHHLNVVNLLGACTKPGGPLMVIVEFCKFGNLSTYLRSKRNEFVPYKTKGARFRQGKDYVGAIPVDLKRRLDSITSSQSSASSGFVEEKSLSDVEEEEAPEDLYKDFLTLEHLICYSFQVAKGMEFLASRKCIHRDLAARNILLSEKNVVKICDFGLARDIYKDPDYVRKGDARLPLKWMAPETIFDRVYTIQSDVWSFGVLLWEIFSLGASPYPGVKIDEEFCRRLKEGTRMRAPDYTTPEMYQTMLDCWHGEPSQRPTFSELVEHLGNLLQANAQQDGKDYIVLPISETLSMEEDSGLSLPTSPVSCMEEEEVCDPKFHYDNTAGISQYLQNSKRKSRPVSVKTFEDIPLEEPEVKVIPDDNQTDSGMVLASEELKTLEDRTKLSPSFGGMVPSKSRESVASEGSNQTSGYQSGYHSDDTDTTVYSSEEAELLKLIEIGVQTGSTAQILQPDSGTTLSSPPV
T2 sequence (P08581 1078-1337): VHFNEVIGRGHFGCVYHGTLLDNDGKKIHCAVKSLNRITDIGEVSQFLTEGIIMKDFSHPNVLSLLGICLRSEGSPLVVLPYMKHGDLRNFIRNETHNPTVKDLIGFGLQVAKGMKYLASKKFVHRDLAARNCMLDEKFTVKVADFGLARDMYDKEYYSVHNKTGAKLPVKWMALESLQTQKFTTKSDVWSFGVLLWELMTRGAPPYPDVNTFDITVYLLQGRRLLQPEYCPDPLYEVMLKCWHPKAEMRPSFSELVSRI
Sequence of TPR-MET fusion protein (P08581 with tags, fused parts or gaps): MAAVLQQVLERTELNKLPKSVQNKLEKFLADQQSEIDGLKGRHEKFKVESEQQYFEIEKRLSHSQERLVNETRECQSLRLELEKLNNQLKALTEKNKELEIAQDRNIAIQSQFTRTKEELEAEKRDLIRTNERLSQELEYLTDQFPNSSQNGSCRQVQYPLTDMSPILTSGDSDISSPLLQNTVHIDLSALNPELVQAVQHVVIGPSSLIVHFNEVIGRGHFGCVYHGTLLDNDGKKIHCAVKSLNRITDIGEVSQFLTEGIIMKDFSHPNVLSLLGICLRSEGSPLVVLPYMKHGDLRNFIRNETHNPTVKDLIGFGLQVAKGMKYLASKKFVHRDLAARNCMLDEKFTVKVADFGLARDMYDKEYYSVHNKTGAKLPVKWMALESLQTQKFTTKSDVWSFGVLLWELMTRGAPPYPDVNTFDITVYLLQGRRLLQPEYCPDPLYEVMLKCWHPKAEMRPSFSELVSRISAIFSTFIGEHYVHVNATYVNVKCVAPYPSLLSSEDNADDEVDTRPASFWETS

CN(C)C(=O)c1cc2nccc(Oc3ccc(NC(=S)NC(=O)Cc4ccccc4)cc3F)c2s1 [Example 1, 1-(4-(2-(Dimethylcarbamoyl)thieno[3,2-b]pyridin-7-yloxy)-3-fluorophenyl)-3-(2-phenylacetyl)thiourea]
Tumor Growth Inhibition (%) (A549; [2]): b (% TGI in the range of 50-74)
Tumor Growth Inhibition (%) (MKN74; 15 mg/kg once daily IP): d (% TGI in the range of 0-24)
Tumor Growth Inhibition (%) (MKN74; 30 mg/kg once daily IP): c (% TGI in the range of 25-49)
Tumor Growth Inhibition (%) (SKLMS cells; 14 days): b (% TGI in the range of 50-74)
Tumor Growth Inhibition (%) (HCT116; [3]): c (% TGI in the range of 25-49)
Tumor Growth Inhibition (%) (U87 cells; [4]): c (% TGI in the range of 25-49)
Tumor Growth Inhibition (%) (U87 cells; 30 mg/kg once daily IP, vehicle DMSO, 7 days): c (% TGI in the range of 25-49)
Tumor Growth Inhibition (%) (U87 cells; [2]): c (% TGI in the range of 25-49)
Tumor Growth Inhibition (%) (U87 cells; 30 mg/kg once daily IP, vehicle DMSO, 14 days (a* footnote class)): a* (greater than 100% tumor growth inhibition (i.e., tumor shrinkage))
Tumor Growth Inhibition (%) (U87 cells; [5]): c (% TGI in the range of 25-49)
IC50 (VEGF receptor KDR): < 50 nM
Tumor Growth Inhibition (%) (SW48): b (% TGI in the range of 50-74)

CCN(CC)C(=O)c1cc2nccc(Oc3ccc(NC(=S)NC(=O)Cc4ccccc4)cc3F)c2s1 [Example 7, 1-(4-(2-(diethylcarbamoyl)thieno[3,2-b]pyridin-7-yloxy)-3-fluorophenyl)-3-(2-phenylacetyl)thiourea]
IC50 (TPR-MET fusion protein): 50 to 250 nM
IC50 [1]: 50 to 250 nM
Tumor Growth Inhibition (%) (HCT116; [3]): b (% TGI in the range of 50-74)
IC50 (VEGF receptor KDR): 250 to 500 nM
Tumor Growth Inhibition (%) (SW48): c (% TGI in the range of 25-49)

O=C(Cc1ccccc1)NC(=S)Nc1ccc(Oc2ccnc3cc(-c4ccccn4)sc23)c(F)c1 [Example 13, 1-(4-(2-(Pyridin-2-yl)thieno[3,2-b]pyridin-7-yloxy)-3-fluorophenyl)-3-(2-phenylacetyl)thiourea]
Tumor Growth Inhibition (%) (SKLMS cells; 10 days): b (% TGI in the range of 50-74)
Tumor Growth Inhibition (%) (A431 cells; 7 days): b (% TGI in the range of 50-74)
Tumor Growth Inhibition (%) (U87 cells; [2]): a (% TGI in the range of 75-100)
Tumor Growth Inhibition (%) (DU145; 30 mg/kg once daily IP): d (% TGI in the range of 0-24)
IC50 (VEGF receptor KDR): < 50 nM
Tumor Growth Inhibition (%) (SW48): d (% TGI in the range of 0-24)

Cn1ccnc1-c1cc2nccc(Oc3ccc(NC(=S)NC(=O)Cc4ccccc4)cc3F)c2s1 [Example 15, N-(3-Fluoro-4-(2-(1-methyl-1H-imidazol-2-yl)thieno[3,2-b]pyridin-7-yloxy)phenylcarbamothioyl)-2-phenylacetamide]
Tumor Growth Inhibition (%) (A549; [2]): b (% TGI in the range of 50-74)
Tumor Growth Inhibition (%) (A549; 50 mg/kg once daily PO, vehicle 5% DMSO - 1% Tween-80 in water, 11 days): c (% TGI in the range of 25-49)
Tumor Growth Inhibition (%) (A549; 75 mg/kg once daily PO, vehicle 5% DMSO - 1% Tween-80 in water, 10 days): b (% TGI in the range of 50-74)
Tumor Growth Inhibition (%) (A549; 75 mg/kg once daily PO, vehicle 5% DMSO - 1% Tween-80 in water, 12 days): c (% TGI in the range of 25-49)
Tumor Growth Inhibition (%) (MKN74; 15 mg/kg once daily IP): c (% TGI in the range of 25-49)
Tumor Growth Inhibition (%) (MKN74; 30 mg/kg once daily IP): c (% TGI in the range of 25-49)
Tumor Growth Inhibition (%) (SKLMS cells; 10 days): b (% TGI in the range of 50-74)
Tumor Growth Inhibition (%) (A431 cells; 14 days): b (% TGI in the range of 50-74)
Tumor Growth Inhibition (%) (HCT116; 15 mg/kg once daily IP, 10 days): c (% TGI in the range of 25-49)
Tumor Growth Inhibition (%) (HCT116; 30 mg/kg once daily IP, 10 days): c (% TGI in the range of 25-49)
Tumor Growth Inhibition (%) (U87 cells; [4]): b (% TGI in the range of 50-74)
Tumor Growth Inhibition (%) (U87 cells; 15 mg/kg once daily IV, vehicle 50/50 DMSO:40/60 PEG/0.2 N HCl in saline, 10 days): b (% TGI in the range of 50-74)
Tumor Growth Inhibition (%) (U87 cells; 30 mg/kg once daily IP, vehicle DMSO, 10 days): b (% TGI in the range of 50-74)
Tumor Growth Inhibition (%) (U87 cells; [2]): b (% TGI in the range of 50-74)
Tumor Growth Inhibition (%) (U87 cells; 30 mg/kg once daily IV, vehicle 50/50 DMSO:40/60 PEG/0.2 N HCl in saline, 10 days): b (% TGI in the range of 50-74)
Tumor Growth Inhibition (%) (U87 cells; [5]): a (% TGI in the range of 75-100)
Tumor Growth Inhibition (%) (DU145; 15 mg/kg once daily IP): d (% TGI in the range of 0-24)
IC50 (VEGF receptor KDR): < 50 nM

Cn1cnc(-c2cc3nccc(Oc4ccc(NC(=S)NC(=O)Cc5ccccc5F)cc4F)c3s2)c1 [Example 137, N-(3-Fluoro-4-(2-(1-methyl-1H-imidazol-4-yl)thieno[3,2-b]pyridin-7-yloxy)phenylcarbamothioyl)-2-(2-fluorophenyl)acetamide]
Tumor Growth Inhibition (%) (MDA-MB-231): b (% TGI in the range of 50-74)

COc1ccccc1CC(=O)NC(=S)Nc1ccc(Oc2ccnc3cc(-c4cn(C)cn4)sc23)c(F)c1 [Example 138, N-(3-Fluoro-4-(2-(1-methyl-1H-imidazol-4-yl)thieno[3,2-b]pyridin-7-yloxy)phenylcarbamothioyl)-2-(2-methoxyphenyl)acetamide]
Tumor Growth Inhibition (%) (MDA-MB-231): b (% TGI in the range of 50-74)

Cn1cnc(-c2cc3nccc(Oc4ccc(NC(=S)NC(=O)Cc5ccc(F)cc5F)cc4F)c3s2)c1 [drawing 493]
Tumor Growth Inhibition (%) (MNNG-HOS; 40 mg/kg once daily p.o.): a (% TGI in the range of 75-100)

Cn1cnc(-c2cc3nccc(Oc4ccc(NC(=S)NC(=O)Cc5ccc(F)cc5)cc4F)c3s2)c1 [drawing 494]
Tumor Growth Inhibition (%) (MNNG-HOS; 75 mg/kg once daily p.o.): a* (greater than 100% tumor growth inhibition (i.e., tumor shrinkage))

CCn1cnc(-c2cc3nccc(Oc4ccc(NC(=S)NC(=O)Cc5ccccc5C)cc4F)c3s2)c1 [drawing 495]
Tumor Growth Inhibition (%) (MNNG-HOS; 20 mg/kg once daily p.o.): c (% TGI in the range of 25-49)

C#Cc1ccccc1CC(=O)NC(=S)Nc1ccc(Oc2ccnc3cc(-c4cn(C)cn4)sc23)c(F)c1 [drawing 497]
Tumor Growth Inhibition (%) (MV4-11): a (% TGI in the range of 75-100)
